# From US10508120B2, “TYK2 inhibitors and uses thereof” (Nimbus Lakshmi, Inc., priority 2017, dated 2019)
# Where two headings read alike, the source gives them in different places.
# Key:
# [1] = target: Tyk2/JAK2 (heterodimeric complex) (Homo sapiens (Human), UniProt P29597); test: IL-12 Induced pSTAT4 in Human PBMC; assay type: cell-based; details: 1.7 ng/mL IL-12
# Text: The IL-12 Induced pSTAT4 assay evaluates the inhibition of IL-12 induced STAT4 phophorylation mediated by Tyk2/JAK2 (heterodimeric complex).
# [2] = target: human TYK2 (JH2domain-pseudokinase) (Homo sapiens (Human), UniProt P29597); test: TYK2 JH2 Domain Binding Assay (KINOMEscan)
# In short: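 Competition binding of a DNA-tagged fusion of human TYK2 JH2 pseudokinase (G556–D888) with NFkB DNA-binding domain, from HEK293 extracts (<0.1 nM final), against immobilised ligand beads; 1 h shaking at room temperature, 0.9% DMSO. Bound kinase quantified by qPCR.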
# Tyk2 kinase domain (DH1) = Tyk2 kinase domain (DH1) (Homo sapiens (Human), UniProt P29597); test: Tyk2 Radioactive Kinase Assay; assay type: biochemical; details: read-out: Tyk2 JH1% Inhibition @ 10 μM
# In short: (§1)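 Single-point screen: 10 μM test compound, radioactive kinase read-out, percent inhibition reported for each kinase domain.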
# [3] = target: JAK2/JAK2 homdimeric complex (Homo sapiens (Human), UniProt O60674); test: GM-CSF Induced pSTAT5 in Human PBMC; assay type: cell-based; details: GM-CSF 5 ng/mL for 20 minutes, pSTAT5 by MSD, read-out: PBMC_GMCSF_pSTAT5 IC50
# JAK2 kinase domain (JH1) = JAK2 kinase domain (JH1) (Homo sapiens (Human), UniProt O60674); test: JAK2 Radioactive Kinase Assay; assay type: biochemical; details: read-out: JAK2 JH1% Inhibition @ 10 μM
# In short: as §1
# Chain of human TYK2 (JH2domain-pseudokinase) (P29597 556-888): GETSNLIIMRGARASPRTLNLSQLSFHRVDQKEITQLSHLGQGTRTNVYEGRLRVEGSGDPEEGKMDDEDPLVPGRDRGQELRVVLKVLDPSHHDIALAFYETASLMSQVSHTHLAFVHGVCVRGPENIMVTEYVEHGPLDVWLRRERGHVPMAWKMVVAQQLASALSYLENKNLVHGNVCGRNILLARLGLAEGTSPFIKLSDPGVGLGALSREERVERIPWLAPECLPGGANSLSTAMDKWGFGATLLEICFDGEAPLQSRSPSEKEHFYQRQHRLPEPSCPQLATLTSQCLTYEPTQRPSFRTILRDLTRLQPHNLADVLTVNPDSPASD
# Chain of Tyk2 kinase domain (DH1) (P29597 897-1176): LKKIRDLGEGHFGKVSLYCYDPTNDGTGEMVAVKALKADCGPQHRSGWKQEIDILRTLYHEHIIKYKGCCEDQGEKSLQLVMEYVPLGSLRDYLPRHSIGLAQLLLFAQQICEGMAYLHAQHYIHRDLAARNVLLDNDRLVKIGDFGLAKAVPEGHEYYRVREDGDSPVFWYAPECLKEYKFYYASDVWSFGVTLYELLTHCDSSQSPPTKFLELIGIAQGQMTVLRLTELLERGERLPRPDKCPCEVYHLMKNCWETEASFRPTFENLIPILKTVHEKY
# Chain of Tyk2/JAK2 (heterodimeric complex) (P29597 whole entry, other chains not shown): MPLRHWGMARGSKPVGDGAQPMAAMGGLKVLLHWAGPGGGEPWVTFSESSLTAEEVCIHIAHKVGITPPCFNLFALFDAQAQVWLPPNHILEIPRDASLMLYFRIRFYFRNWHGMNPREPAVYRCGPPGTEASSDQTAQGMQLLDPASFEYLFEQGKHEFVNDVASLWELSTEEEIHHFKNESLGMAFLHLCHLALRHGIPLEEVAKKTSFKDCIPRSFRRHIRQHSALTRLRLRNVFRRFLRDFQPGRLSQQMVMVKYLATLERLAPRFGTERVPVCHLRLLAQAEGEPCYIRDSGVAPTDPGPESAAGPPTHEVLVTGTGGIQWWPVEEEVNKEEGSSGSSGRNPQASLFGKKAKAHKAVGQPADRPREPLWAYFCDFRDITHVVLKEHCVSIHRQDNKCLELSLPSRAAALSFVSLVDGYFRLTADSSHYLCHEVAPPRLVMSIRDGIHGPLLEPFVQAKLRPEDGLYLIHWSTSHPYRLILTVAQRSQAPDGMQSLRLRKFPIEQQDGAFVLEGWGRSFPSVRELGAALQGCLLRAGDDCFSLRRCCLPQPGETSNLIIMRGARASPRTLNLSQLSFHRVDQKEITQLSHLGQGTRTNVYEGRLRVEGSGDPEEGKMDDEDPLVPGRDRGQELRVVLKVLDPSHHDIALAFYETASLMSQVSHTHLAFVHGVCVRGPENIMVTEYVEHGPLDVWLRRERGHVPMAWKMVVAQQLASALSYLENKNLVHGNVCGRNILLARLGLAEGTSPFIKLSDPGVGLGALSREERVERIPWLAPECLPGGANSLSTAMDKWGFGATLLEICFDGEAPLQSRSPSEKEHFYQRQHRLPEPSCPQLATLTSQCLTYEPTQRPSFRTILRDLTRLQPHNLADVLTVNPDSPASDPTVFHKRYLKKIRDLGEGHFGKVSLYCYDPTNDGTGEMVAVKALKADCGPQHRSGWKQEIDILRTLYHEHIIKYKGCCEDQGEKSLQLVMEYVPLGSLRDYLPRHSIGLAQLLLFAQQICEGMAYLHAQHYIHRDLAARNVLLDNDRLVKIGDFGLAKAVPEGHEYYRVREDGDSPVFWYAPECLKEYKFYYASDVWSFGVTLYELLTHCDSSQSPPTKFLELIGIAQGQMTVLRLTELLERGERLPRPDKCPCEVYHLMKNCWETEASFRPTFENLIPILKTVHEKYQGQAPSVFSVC
# Chain of JAK2 kinase domain (JH1) (O60674 849-1124): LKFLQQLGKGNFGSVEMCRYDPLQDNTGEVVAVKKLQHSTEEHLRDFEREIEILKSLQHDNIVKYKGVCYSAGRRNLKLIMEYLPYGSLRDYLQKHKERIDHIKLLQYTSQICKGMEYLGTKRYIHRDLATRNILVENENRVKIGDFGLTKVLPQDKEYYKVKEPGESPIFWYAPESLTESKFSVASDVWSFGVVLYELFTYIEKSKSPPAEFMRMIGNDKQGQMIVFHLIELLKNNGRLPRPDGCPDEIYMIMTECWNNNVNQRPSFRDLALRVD
# Chain of JAK2/JAK2 homdimeric complex (O60674 whole entry, the tested form may be a part): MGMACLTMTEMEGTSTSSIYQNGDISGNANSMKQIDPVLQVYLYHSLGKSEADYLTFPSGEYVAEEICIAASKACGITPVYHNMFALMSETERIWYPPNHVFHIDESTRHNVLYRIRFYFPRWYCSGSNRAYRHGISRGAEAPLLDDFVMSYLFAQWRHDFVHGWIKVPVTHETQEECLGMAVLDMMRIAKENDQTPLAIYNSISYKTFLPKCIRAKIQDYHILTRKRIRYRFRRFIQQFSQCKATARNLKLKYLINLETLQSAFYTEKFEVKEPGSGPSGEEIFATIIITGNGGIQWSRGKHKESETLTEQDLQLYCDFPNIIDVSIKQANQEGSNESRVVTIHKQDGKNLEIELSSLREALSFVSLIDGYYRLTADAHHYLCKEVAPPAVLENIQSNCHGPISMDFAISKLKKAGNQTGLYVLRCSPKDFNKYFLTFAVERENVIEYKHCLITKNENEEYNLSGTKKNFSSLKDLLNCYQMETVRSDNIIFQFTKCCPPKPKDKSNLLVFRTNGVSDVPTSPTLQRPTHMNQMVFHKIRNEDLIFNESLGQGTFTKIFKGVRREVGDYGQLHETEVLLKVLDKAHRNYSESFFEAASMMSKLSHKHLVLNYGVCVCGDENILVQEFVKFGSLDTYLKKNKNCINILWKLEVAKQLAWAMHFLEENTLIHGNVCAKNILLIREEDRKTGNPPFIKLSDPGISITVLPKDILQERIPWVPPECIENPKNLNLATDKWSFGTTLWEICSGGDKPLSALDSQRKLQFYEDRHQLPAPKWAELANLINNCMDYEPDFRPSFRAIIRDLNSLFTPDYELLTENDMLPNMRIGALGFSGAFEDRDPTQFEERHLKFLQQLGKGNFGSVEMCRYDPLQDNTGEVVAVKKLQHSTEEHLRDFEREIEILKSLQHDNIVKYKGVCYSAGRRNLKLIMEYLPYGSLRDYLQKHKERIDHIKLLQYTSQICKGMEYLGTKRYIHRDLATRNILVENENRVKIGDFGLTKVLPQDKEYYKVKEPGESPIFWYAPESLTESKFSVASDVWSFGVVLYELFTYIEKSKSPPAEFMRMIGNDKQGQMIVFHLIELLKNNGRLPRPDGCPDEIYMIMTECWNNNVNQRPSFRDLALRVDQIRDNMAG
# Chain of JAK2/JAK2 homdimeric complex (P32927 17-897 partner): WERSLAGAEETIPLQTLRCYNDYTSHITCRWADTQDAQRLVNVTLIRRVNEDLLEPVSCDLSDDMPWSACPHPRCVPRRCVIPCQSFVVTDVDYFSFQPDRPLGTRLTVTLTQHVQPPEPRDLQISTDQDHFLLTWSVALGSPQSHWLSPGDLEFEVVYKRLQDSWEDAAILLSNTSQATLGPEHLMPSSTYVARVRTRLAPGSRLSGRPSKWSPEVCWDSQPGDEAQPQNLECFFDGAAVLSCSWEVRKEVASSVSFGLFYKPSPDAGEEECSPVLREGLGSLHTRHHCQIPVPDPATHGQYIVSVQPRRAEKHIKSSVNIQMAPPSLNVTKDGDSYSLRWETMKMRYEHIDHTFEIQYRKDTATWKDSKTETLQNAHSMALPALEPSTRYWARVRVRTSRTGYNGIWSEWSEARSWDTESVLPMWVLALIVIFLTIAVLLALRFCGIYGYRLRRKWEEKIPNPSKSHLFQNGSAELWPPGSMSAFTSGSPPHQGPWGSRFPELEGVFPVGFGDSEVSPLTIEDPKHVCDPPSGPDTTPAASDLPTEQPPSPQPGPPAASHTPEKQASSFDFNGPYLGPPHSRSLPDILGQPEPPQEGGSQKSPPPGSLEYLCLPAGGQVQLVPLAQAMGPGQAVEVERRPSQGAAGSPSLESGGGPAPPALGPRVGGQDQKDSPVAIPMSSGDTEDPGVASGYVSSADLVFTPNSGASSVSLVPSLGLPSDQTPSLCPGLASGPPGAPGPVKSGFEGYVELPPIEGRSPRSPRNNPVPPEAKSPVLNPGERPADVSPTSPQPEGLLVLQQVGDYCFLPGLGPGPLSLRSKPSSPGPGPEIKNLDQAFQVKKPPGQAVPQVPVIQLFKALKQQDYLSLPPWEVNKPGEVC
Structure (SMILES),IC50 [1] [nM],Kd [2] [nM],"inhibition at 10 µM (Tyk2 kinase domain (DH1); compound at 10 μM, ATP 10 μM) [%]",IC50 [3] [nM],"inhibition at 10 µM (JAK2 kinase domain (JH1); compound at 10 μM, ATP 10 μM) [%]","inhibition at 10 µM (Tyk2 kinase domain (DH1); 10 μM compound, 10 μM ATP) [%]","inhibition at 10 µM (JAK2 kinase domain (JH1); 10 μM compound, 10 μM ATP) [%]"
CNc1cc(Nc2cccn(-c3ocnc3C)c2=O)nc2c(C(=O)N[C@@H]3C[C@@H]3F)cnn12 [I-790],< 100,< 0.2,< 50,> 12500,< 50,–,–
CNc1cc(Nc2cccn(-c3ccccn3)c2=O)nc2c(C(=O)N[C@H]3CC[C@H]3O)cnn12 [I-805],< 100,< 0.2,< 50,> 12500,< 50,–,–
CNc1cc(Nc2cccn([C@H]3[C@@H]4COC[C@@H]43)c2=O)nc2c(C(=O)N[C@@H]3C[C@@H]3F)cnn12 [I-811],< 100,< 0.2,–,> 50000,–,< 50,< 50
CNc1cc(Nc2cc(Cl)cn([C@@H]3CCCN(C)C3)c2=O)nc2c(C(=O)NC3CC3)cnn12 [I-819],< 100,< 0.2,–,> 50000,–,< 50,< 50
CNc1cc(Nc2cc(Cl)cn([C@H]3CCCN(C)C3)c2=O)nc2c(C(=O)NC3CC3)cnn12 [I-820],< 100,< 0.2,–,> 12500,–,< 50,< 50
CNc1cc(Nc2cc(Cl)cn(C3CCOCC3)c2=O)nc2c(C(=O)N[C@@H]3CC[C@H]3O)cnn12 [I-825],< 100,< 0.2,–,> 50000,–,< 50,< 50
CNc1cc(Nc2cccc(N3CCO[C@]4(CCOC4)C3)n2)nc2c(C(=O)NC3CC3)cnn12 [I-827],100 to 500,< 0.2,–,> 50000,–,< 50,< 50
CNc1cc(Nc2cccn([C@H]3CC[C@H](OC)CC3)c2=O)nc2c(C(=O)NC[C@H](C)CO)cnn12 [I-829],< 100,< 0.2,–,> 50000,–,< 50,< 50
CNc1cc(Nc2cccn([C@@H]3CCC[C@H](OC)C3)c2=O)nc2c(C(=O)N[C@@H]3C[C@@H]3F)cnn12 [I-840],< 100,< 0.2,–,> 50000,–,< 50,< 50
"CNc1cc(-c2cn(C(C)C)c3ncccc23)nc2c(C(=O)N[C@@H]3COC[C@@H]3O)cnn12 [I-842, N-((3R,4R)-4-hydroxytetrahydrofuran-3-yl)-5-(1-isopropyl-1H-pyrrolo[2,3-b]pyridin-3-yl)-7-(methylamino)pyrazolo[1,5-a]pyrimidine-3-carboxamide]",< 100,< 0.2,–,> 50000,–,< 50,< 50
CNc1cc(Nc2cccn(C3CCN(CCF)CC3)c2=O)nc2c(C(=O)NCC(C)(C)CO)cnn12 [I-847],100 to 500,< 0.2,–,> 50000,–,< 50,< 50
CNc1cc(Nc2cccn(C3CCCN(CCF)C3)c2=O)nc2c(C(=O)N[C@@H]3C[C@@H]3F)cnn12 (stereo partly shown) [I-849],100 to 500,< 0.2,–,> 50000,–,< 50,< 50
CNc1cc(Nc2cc(Cl)cn([C@H]3CCCN(C)C3)c2=O)nc2c(C(=O)N[C@@H]3C[C@@H]3F)cnn12 [I-854],< 100,< 0.2,–,> 50000,–,< 50,< 50
CNc1cc(Nc2cccc(-c3cn(C)nc3F)n2)nc2c(C(=O)N[C@@H]3C[C@@H]3F)cnn12 [I-860],< 100,< 0.2,–,> 50000,–,< 50,< 50
